Laboratory results taken from patent publication US9212163B2, “Pesticidal compositions and processes related thereto” (Dow AgroSciences LLC, priority 2012, dated 2015).
Like-named read-outs stand apart in the source and are kept apart here.

Tests used:
[1] = test system: Corn Earworm (CEW) (Helicoverpa zea); test: Bioassay on Corn Earworm (CEW), 128-well diet tray assay; format: in vivo; settings: Table 3: Assay Results Part 1, read-out: CEW Rating
Procedure: (§1) Certain molecules disclosed in this document were tested against BAW, CEW and CL using procedures described in the following examples. In the reporting of the results, the “BAW & CEW & CL Rating Table” was used (See Table Section).
Bioassays on CEW (Helicoverpa zea)
Bioassays on CEW were conducted using a 128-well diet tray assay. One to five second instar CEW larvae were placed in each well (3 mL) of the diet tray that had been previously filled with 1 mL of artificial diet to which 50 μg/cm^2 of the test compound (dissolved in 50 μL of 90:10 acetone-water mixture) had been applied (to each of eight wells) and then allowed to dry. Trays were covered with a clear self-adhesive cover, and held at 25° C., 14:10 light-dark for five to seven days. Percent mortality was recorded for the larvae in each well; activity in the eight wells was then averaged. The results are indicated in the table entitled “Table 3: Assay Results Part 1” (See Table Section).

[2] = test system: Beet Armyworm (BAW) (Spodoptera exigua); test: Bioassay on Beet Armyworm (BAW), 128-well diet tray assay; format: in vivo; settings: Spodoptera exigua, read-out: BAW Rating
Method in brief: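 Artificial diet treated with 50 μg/cm^2 compound in 90:10 acetone-water was dried, then one to five second-instar larvae were placed per well, eight wells per compound. Trays were held at 25° C., 14:10 light-dark for five to seven days, and percent mortality averaged across wells.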

[3] = test system: Cabbage Looper (CL) (Trichoplusia ni); test: Bioassay on Cabbage Looper (CL), 128-well diet tray assay; format: in vivo; settings: Table 5: Prophetic Compounds Subsequently Exemplified, read-out: CL Rating
Procedure: as §1
Bioassays on CL (Trichoplusia ni)
Bioassays on CL were conducted using a 128-well diet tray assay. One to five second instar CL larvae were placed in each well (3 mL) of the diet tray that had been previously filled with 1 mL of artificial diet to which 50 μg/cm^2 of the test compound (dissolved in 50 μL of 90:10 acetone-water mixture) had been applied (to each of eight wells) and then allowed to dry. Trays were covered with a clear self-adhesive cover, and held at 25° C., 14:10 light-dark for five to seven days. Percent mortality was recorded for the larvae in each well; activity in the eight wells was then averaged. The results are indicated in the table entitled “Table 4: Assay Results Part 2” (See Table Section).

[4] = test system: Green Peach Aphid (GPA) (Myzus persicae); test: Bioassay on Green Peach Aphid (GPA), foliar spray on cabbage seedlings; format: in vivo; settings: 72 h, Table 5: Prophetic Compounds Subsequently Exemplified, read-out: GPA Rating
Procedure: Certain molecules disclosed in this document were tested against GPA using procedures described in the following example. In the reporting of the results, the “GPA Rating Table” was used (See Table Section).
Cabbage seedlings grown in 3-inch pots, with 2-3 small (3-5 cm) true leaves, were used as test substrate. The seedlings were infested with 20-50 GPA (wingless adult and nymph stages) one day prior to chemical application. Four pots with individual seedlings were used for each treatment. Test compounds (2 mg) were dissolved in 2 mL of acetone/methanol (1:1) solvent, forming stock solutions of 1000 ppm test compound. The stock solutions were diluted 5× with 0.025% Tween 20 in H2O to obtain the solution at 200 ppm test compound. A hand-held aspirator-type sprayer was used for spraying a solution to both sides of […] leaves until runoff. Reference plants (solvent check) were sprayed with the diluent only containing 20% by volume of acetone/methanol (1:1) solvent. Treated plants were held in a holding room for three days at approximately 25° C. and ambient relative humidity (RH) prior to grading. Evaluation was conducted by counting the number of live aphids per plant under a microscope. Percent Control was measured by using Abbott's correction formula (W. S. Abbott, “A Method of Computing the Effectiveness of an Insecticide” J. Econ. Entomol. 18 (1925), pp. 265-267) as follows. Corrected % Control=100*(X−Y)/X • where • X=No. of live aphids on solvent check plants and • Y=No. of live aphids on treated plants
The results are indicated in the tables entitled “Table 3: Assay Results” and “Table 4: Assay Results Part 2” (See Table Section).

[5] = Table 5: Prophetic Compounds Subsequently Exemplified

| SMILES | melting point [°C] | pest or weed control at 50 µg/cm2 [1] [%] | pest or weed control at 50 µg/cm2 ([2]; Table 3: Assay Results Part 1) [%] | pest or weed control at 50 µg/cm2 [3] [%] | pest or weed control at 200 µg/mL [4] [%] | pest or weed control at 50 µg/cm2 [2, 5] [%] |
| --- | --- | --- | --- | --- | --- | --- |
| NC(=O)c1ccc(/C=C/C(c2cc(Cl)cc(Cl)c2)C(F)(F)F)cc1 (stereo not drawn) [AC2] | 110 to 112 |  |  |  |  |  |
| Cc1cc(/C=C/C(c2cc(Cl)cc(Cl)c2)C(F)(F)F)ccc1C(=O)NCC(=O)NCC(F)(F)F (stereo not drawn) [AC24] |  | 50 to 100 | 50 to 100 |  |  |  |
| O=C(NC1(C(=O)NCC(F)(F)F)CC1)c1ccc(/C=C/C(c2ccc(Cl)c([N+](=O)[O-])c2)C(F)(F)F)cc1C(F)(F)F (stereo not drawn) [Compound P470] |  |  |  | 50 to 100 | 0 to 80 | 50 to 100 |
| CCNC(=O)C1(NC(=O)c2ccc(/C=C/C(c3cc(Cl)c(Cl)c(Cl)c3)C(F)(F)F)cc2C(F)(F)F)CC1 (stereo not drawn) [Compound P1025] |  |  |  | 50 to 100 | 0 to 80 | 50 to 100 |
| CCNC(=O)C1(NC(=O)c2ccc(/C=C/C(c3cc(Cl)c(Cl)c(Cl)c3)C(F)(F)F)cc2C)CC1 (stereo not drawn) [Compound P1026] |  |  |  | 50 to 100 | 0 to 80 | 50 to 100 |
